pEC50: −log10 of the molar value. Read-outs that look alike come from different tables or passages of the source. Numbered stars: 1 amine (or outer) side, 2 acyl side, 3 side chain; on linkers, the order of the positions; unused ones are H or OH. Square brackets hold non-standard residues; d marks the D form. Side chains are listed from the residue outwards. * marks the point of attachment. C20 diacid = O=C(O)CCCCCCCCCCCCCCCCCCC(=O)*; C18 diacid = O=C(O)CCCCCCCCCCCCCCCCC(=O)*; C16 diacid = O=C(O)CCCCCCCCCCCCCCC(=O)*; γGlu = O=C(O)[C@H](CCC(=O)[*:2])N[*:1]; AEEA = NCCOCCOCC(=O)O; Aib = CC(C)(N)C(=O)O
Experiments:
Assay type in all cases: cell-based
[1] = molecular target: T1, human amylin receptor (hAMYR3) (Homo sapiens, UniProt O60896+P30988); test: Amylin receptor assay, method A (CRE-luciferase reporter, BHK cells)
T1 construct: host or cells: BHK cells (Hollex-1 line expressing hCTR(a) and CRE-Luc), further transfected with human RAMP3
T1 sequence (P30988 25-474): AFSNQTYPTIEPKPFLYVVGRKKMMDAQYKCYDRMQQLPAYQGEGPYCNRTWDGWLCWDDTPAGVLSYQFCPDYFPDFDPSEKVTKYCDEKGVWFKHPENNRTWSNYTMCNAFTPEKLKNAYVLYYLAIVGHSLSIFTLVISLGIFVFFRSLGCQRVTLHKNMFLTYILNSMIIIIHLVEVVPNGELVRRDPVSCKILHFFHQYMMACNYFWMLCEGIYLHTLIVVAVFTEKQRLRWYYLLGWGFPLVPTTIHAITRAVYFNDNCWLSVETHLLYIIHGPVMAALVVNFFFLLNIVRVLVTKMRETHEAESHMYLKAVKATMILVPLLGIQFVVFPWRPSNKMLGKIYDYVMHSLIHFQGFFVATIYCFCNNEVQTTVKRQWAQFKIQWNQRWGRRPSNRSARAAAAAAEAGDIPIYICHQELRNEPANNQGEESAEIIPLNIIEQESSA
T1 sequence (O60896 24-148): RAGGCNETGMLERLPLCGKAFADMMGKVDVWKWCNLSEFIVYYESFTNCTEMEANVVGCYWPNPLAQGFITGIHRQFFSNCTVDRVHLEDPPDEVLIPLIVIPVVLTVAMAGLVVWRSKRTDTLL
Experimental: (§1) To assess how the activation of the receptors is potentially influenced by the presence of human serum albumin (HSA), the in vitro assays were performed in the absence of HSA and presence of 1% (w/v) HSA.
It is thus possible to measure hAMYR3 activity using a CRE-luciferase reporter gene introduced into Baby Hamster Kidney (BHK) cells co-expressing the hAMYR3.
The cell line was further transfected with human receptor modifying protein 3 (RAMP3) using standard methods.
After centrifugation, the cell pellet was resuspended and diluted to approximately 2.5-4.0×10^6 (2.5E+6 to 4.0E+6) cells/mL in Recovery™ Cell Culture Freezing Medium (Gibco, 12648-010). Cells were aliquoted and stored at −180° C. until use.
The assay buffer consisted of DMEM without phenol red (Gibco, 11880-028) supplemented with 1× GlutaMAX (Gibco, 35050-038), 10 mM HEPES (Gibco, 15630-056) and 1% (w/v) ovalbumin (Sigma, A5503) either with or without 0.1% (v/v) Pluronic F-68 (Gibco, 24040-032) and either with or without HSA (Sigma, A9511).
The plate was incubated over night at 37° C. in 5% CO2. […] Luminescence was detected on a luminescence plate reader e.g., a Synergy 2 (BioTek).

[2] = molecular target: T2, human GLP-1 receptor (hGLP-1R) (Homo sapiens, UniProt P43220); test: GLP-1 receptor assay, method A (CRE-luciferase reporter, BHK cells)
T2 construct: expressed in transfected cells
T2 sequence (P43220 24-463): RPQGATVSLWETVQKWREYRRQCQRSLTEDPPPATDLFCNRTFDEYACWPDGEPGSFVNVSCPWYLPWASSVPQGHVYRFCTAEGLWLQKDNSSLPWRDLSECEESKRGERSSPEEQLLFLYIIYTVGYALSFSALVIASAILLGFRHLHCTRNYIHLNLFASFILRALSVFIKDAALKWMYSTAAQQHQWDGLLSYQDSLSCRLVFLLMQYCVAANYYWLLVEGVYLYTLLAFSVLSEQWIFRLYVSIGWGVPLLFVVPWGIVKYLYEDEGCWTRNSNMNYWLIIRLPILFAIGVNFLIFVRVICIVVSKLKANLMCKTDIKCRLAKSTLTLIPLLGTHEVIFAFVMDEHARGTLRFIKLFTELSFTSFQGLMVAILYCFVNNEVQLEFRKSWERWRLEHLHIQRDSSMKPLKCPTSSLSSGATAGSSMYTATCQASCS
Experimental: as §1
Cells at approximately 80-90% confluence were washed once in PBS (Gibco 14190-094) and loosened from the cell flasks with Versene (Gibco, 15040-033). […] Cells were aliquoted and stored at −180° C. until use.
(§2) The assay buffer consisted of DMEM without phenol red (Gibco, 11880-028) supplemented with 1× GlutaMAX (Gibco, 35050-038), 10 mM HEPES (Gibco, 15630-056), 1% (w/v) ovalbumin (Sigma, A5503) and 0.1% (v/v) Pluronic F-68 (Gibco, 24040-032) either with HSA or without HSA (Sigma, A9511).
Frozen stocks of hGLP-1R BHK CRE-Luc cells were thawed in a 37° C. water bath, washed once in PBS (Gibco 14190-094) and diluted to 1.5×10^6 (1.5E+6) cells/mL in assay buffer with or without 2% (w/v) HSA (Sigma, A9511). […] The assay plates were incubated for 3 hours at 37° C. in 5% CO2, left at room temperature for 5 minutes after which 100 μL steadylite Plus™ (PerkinElmer/Revvity, 6066759) was added to each well. Plates were sealed and incubated at room temperature with gentle shaking for 30 minutes while protected from light. Luminescence was detected on a luminescence plate reader e.g., a Synergy 2 (BioTek).

[3] = molecular target: T3, human GIP receptor (hGIPR) (Homo sapiens, UniProt P48546); test: GIP receptor assay, method A (CRE-luciferase reporter, BHK cells)
T3 construct: expressed in transfected cells
T3 sequence (P48546 22-466): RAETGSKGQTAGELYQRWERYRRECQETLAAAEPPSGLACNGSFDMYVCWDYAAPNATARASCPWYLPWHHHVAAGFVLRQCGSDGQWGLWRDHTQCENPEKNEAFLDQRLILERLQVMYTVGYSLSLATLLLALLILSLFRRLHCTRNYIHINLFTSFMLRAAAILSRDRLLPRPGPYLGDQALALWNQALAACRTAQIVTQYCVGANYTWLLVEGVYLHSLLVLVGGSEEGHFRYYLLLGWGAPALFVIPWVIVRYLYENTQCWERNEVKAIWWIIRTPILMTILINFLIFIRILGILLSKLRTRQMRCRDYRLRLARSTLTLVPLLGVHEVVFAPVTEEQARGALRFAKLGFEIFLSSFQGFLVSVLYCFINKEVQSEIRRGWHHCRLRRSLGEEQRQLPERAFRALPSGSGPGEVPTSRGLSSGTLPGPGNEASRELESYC
Experimental: To assess how the activation of the receptors is potentially influenced by the presence of human serum albumin (HSA), the in vitro assays were performed in the absence of HSA and presence of 1% (w/v) HSA. Unless stated otherwise the reference to the “GIP receptor assay as described in Example 4” throughout the specification shall refer to the described herein assay procedure method A (hGIPR assay) in the absence of HSA.
Activation of the human GIP receptor leads to increased intra-cellular concentrations of cyclic AMP (cAMP) and the consequent transcription activation from promoters containing multiple copies of the cAMP response element (CRE). It is thus possible to measure GIP receptor activity using a CRE-luciferase reporter gene introduced into Baby Hamster Kidney (BHK) cells co-expressing the human GIP receptor.
Cells at about 80-90% confluency were washed once with PBS (Gibco 14190-094) and detached from the cell flasks with Versene (Gibco, 15040-066). After centrifugation, the cells were counted, resuspended and diluted to approximately 1.5-3.0×10^6 (1.5E+6 to 3.0E+6) cells/mL in Recovery Cell Culture Freezing Medium (Gibco, 12648-010) and stored at −180° C. in suitable aliquots until use.
as §2
On the day before the assay hGIPR BHK Cre-Luc cells were thawed and plated out in 96 well Culture Plates (PerkinElmer/Revvity, 6005680) at 5.0×10^3 (5.0E+3) cells/well in growth medium as described above. The plates were then incubated for 21-23 hours at 37° C. with 5% CO2. On the day of the assay GLP-1-/GIP-/amylin-receptor tri-agonists or reference compounds were diluted in assay buffer using a 7-point, 10-fold titration plus a blank (absence of compound). Each compound was diluted and tested in duplicates in each experiment. In the plates containing the cells the growth medium was removed, and cells were washed twice with 100 μL PBS (Gibco 14190-094). 50 μL of the test compound dilutions were added to the plates containing cells preceded by 50 μL assay buffer with or without 2% (w/v) HSA (Sigma, A9511). The cell plates were incubated for 3 hours in a 5% CO2 incubator at 37° C. The plates were then transferred to room temperature followed by addition of 100 μL steadylite Plus™ (PerkinElmer/Revvity, 6066759). The plates were sealed and shaken for 30 minutes at room temperature while protected from light. Finally, luminescence (as an indicator of receptor activation) was measured on a Mithras reader (Berthold Technologies, DE). The EC50-values [pM] were calculated by non-linear curve fitting applying a four-parameter logistic model (Hill slope=“shared value for all datasets”) using GraphPad Prism (GraphPad Software, Boston, MA, USA).

[4] = method A, absence of HSA, read-out: hAMYR3 Potency, no HSA, EC50
[5] = method A, absence of HSA, read-out: hGLP-1R Potency, no HSA, EC50
[6] = method A, absence of HSA, read-out: hGIPR Potency, no HSA, EC50
[7] = hAMYR3 Potency, 1% HSA, EC50, method A, in the presence of 1% HSA
[8] = hGLP-1R Potency, 1% HSA, EC50, method A, in the presence of 1% HSA
[9] = hGIPR Potency, 1% HSA, EC50, method A, in the presence of 1% HSA

pEC50 [1, 4] | pEC50 [2, 5] | pEC50 [3, 6] | pEC50 [1, 7] | pEC50 [2, 8] | pEC50 [3, 9] | Substance
11.49 | 11.54 | 11.37 | – | – | – | H[Aib]HGTFTSDYSILLEEQAAREFIEWLLAGGPSK([AEEA-AEEA-γGlu-C18 diacid])GEASELSTAALGRLSAELHRLATLPRTETGSGSP-NH2 [Compound 25]
11.37 | 10.29 | 11.63 | – | – | – | Y[Aib]EGTFTSDYSILLEEQAAREFIEWLLAGGPSK([AEEA-AEEA-γGlu-C18 diacid])GALAQTLFVNQASELSTAALGRLSAELHELATLPRTETGSGSP-NH2 [Compound 24]
10.92 | 10.39 | 11.06 | – | – | – | Y[Aib]EGTFTSDYSILLEEQAAREFIEWLLAGGPSK([AEEA-AEEA-γGlu-C18 diacid])GALAQTLAQTLASELSTAALGRLSAELHELATLPRTETGSGSP-NH2 [Compound 21]
11.57 | 10.32 | 11.33 | – | – | – | Y[Aib]EGTFTSDYSILLEEQAAREFIEWLLAGGPSSK([AEEA-AEEA-γGlu-C18 diacid])APPPSGGGEASELSTAALGRLSAELHRLATLPRTETGSGSP-NH2 [Compound 31]
11.51 | 10.57 | 11.58 | – | – | – | Y[Aib]EGTFTSDYSILLEEQAAREFIEWLLAGGPSK([AEEA-AEEA-γGlu-C18 diacid])GEASELSTAALGRLSAELHYLATLPRTETGSGSP-NH2 [Compound 29]
11.51 | 11.39 | 11.41 | 10.03 | 10.86 | 11.06 | H[Aib]HGTFTSDYSILLEEQAAREFIEWLLAGGPSSGALQAPGQAPGASHLSTAQTARLSAELHRLATLPK([AEEA-AEEA-γGlu-C18 diacid])TETGSGSP-NH2 [Compound 107]
11.44 | 10.39 | 11.32 | – | – | – | Y[Aib]EGTFTSDYSILLEEQAAREFIEWLLAGGPSK([AEEA-AEEA-γGlu-C16 diacid])GASELSTAALGRLSAELHRLATLPRTETGSGSP-NH2 [Compound 20]
11.00 | 10.56 | 11.09 | – | – | – | Y[Aib]EGTFTSDYSILLEEQAAREFIEWLLAGGPSK([AEEA-AEEA-γGlu-C18 diacid])GAEASELSTAALGRLSAELHELATLPRTETGSGSP-NH2 [Compound 32]
11.56 | 10.53 | 11.60 | 9.87 | 9.85 | 10.73 | Y[Aib]EGTFTSDYSILLEEQAAREFIEWLLAGGPSGGEASHLSTAQTQRLSAELHK([AEEA-AEEA-γGlu-C18 diacid])LATLPRTETGSGSP-NH2 [Compound 74]
11.26 | 10.63 | 11.79 | – | – | – | Y[Aib]EGTFTSDYSILLEEQAAREFIEWLLAGGPSK([AEEA-AEEA-γGlu-C18 diacid])GGGGEGGGEGEASHLSTAQTQRLSAELHELATLPRTETGSGSP-NH2 [Compound 40]
11.64 | 10.02 | 11.46 | – | – | – | Y[Aib]EGTFTSDYSILLEEQAAREFIEWLLAGGPSK([AEEA-AEEA-γGlu-C18 diacid])GEASELSTAALARLSAELHRLATLPRTETGSGSP-NH2 [Compound 28]
11.39 | 10.80 | 11.48 | 9.73 | 10.29 | 10.80 | Y[Aib]EGTFTSDYSILLEEQAAREFIEWLLAGGPSSGEASHLSTAQTQRLSAELHRLATLPK([AEEA-AEEA-γGlu-C18 diacid])TETGSGSP-NH2 [Compound 81]
11.64 | 10.36 | 11.37 | 10.34 | 9.90 | 10.76 | Y[Aib]EGTFTSDYSILLEEQAAREFIEWLLAGGPSSGAGQAPGQAPGASHLSTAALARLSAELHK([AEEA-AEEA-γGlu-C18 diacid])LATLPRTETGSGSP-NH2 [Compound 114]
11.17 | 10.66 | 11.77 | – | – | – | Y[Aib]EGTFTSDYSILLEEQAAREFIEWLLAGGPSK([AEEA-AEEA-γGlu-C18 diacid])GEASHLSTAQTQRLSAELHELATLPRTETGSGSP-NH2 [Compound 34]
11.21 | 11.11 | 11.08 | 10.24 | 10.49 | 10.21 | H[Aib]HGTFTSDYSILLEEQAAREFIEWLLAGGPSSGALAQTLAQTLASHLSTAQTQRLSAELHK([AEEA-AEEA-γGlu-C18 diacid])LATLPRTETGSGSP-NH2 [Compound 51]
11.41 | 10.79 | 11.54 | 9.42 | 9.89 | 10.53 | Y[Aib]EGTFTSDYSILLEEQAAREFIEWLLAGGPSRGEASHLSTAQTQRLSAELHK([AEEA-AEEA-γGlu-C20 diacid])LATLPRTETGSGSP-NH2 [Compound 94]
11.37 | 10.24 | 11.03 | – | – | – | Y[Aib]EGTFTSDYSILLEEQAAREFIEWLLAGGPSK([AEEA-AEEA-γGlu-C18 diacid])GEASELSTAALGRLSAELHRLATLPRTETGSGSP-NH2 [Compound 19]

Substance | pEC50 [1, 4] | pEC50 [2, 5] | pEC50 [3, 6] | pEC50 [1, 7] | pEC50 [2, 8] | pEC50 [3, 9]
Y[Aib]EGTFTSDYSILLEEQAAREFIEWLLAGGPSSGAPPPSGGGEASHLSTAQTQRLSAELHK([AEEA-AEEA-γGlu-C18 diacid])LATLPRTETGSGSP-NH2 [Compound 49] | 11.73 | 10.48 | 11.36 | 9.97 | 9.96 | 10.78

Source: patent publication US20260174875A1 (Novo Nordisk A/S, priority 2023, published 2026)
